The record followed here is US20070141028A1, “Cancer gene therapeutic drug” (priority 2003, published 2007).

Assay type in all cases: cell-based
For assay [1], the system named is cancer cells. The experiment in a line: β-gal assay of adenovirus infectivity. The text has this:
(§1) That is, ALA and Fe can enhance antitumor effect, because they can increase the infectivity of adenovirus to cancer cells and the amount of virus production within the cells.

The subject of assay [2] is cancer cells. Put plainly: PFU assay of adenovirus production.
Description: as §1

In a further assay the test system is ovarian cancer cells HEY. The experiment in a line: Influence of Fe and ALA on the proliferation inhibitory effect of adenovirus AdE3-1A1.3B (virus rate at IC50). As to conditions: IC50 after five days. The protocol:
Ovarian cancer cells HEY were cultured in 12-well plate at a rate of 10,000 cells/well and FeSO4 was added at a concentration of 50 μg/ml, 5 μg/ml, 0.5 μg/ml or 0 μg/ml on the following day and the cytolysis type adenovirus AdE3-1A1.3B was added to all wells. The proliferation inhibitory effect of the adenovirus was evaluated by IC50 after five days.
Next, the ovarian cancer cell line HEY was cultured in a 12-well plate at a rate of 10,000 cells/well and 5-aminolevulinic acid (ALA) was added at a concentration of 50 μg/ml, 5 μg/ml, 0.5 μg/ml or 0 μg/ml on the following day and the cytolysis type adenovirus AdE3-1A1.3B was added to all wells. The proliferation inhibitory effect of the adenovirus was evaluated by IC50 after five days.
Furthermore, the ovarian cancer cell line HEY was cultured in a 12-well plate at a rate of 10,000 cells/well and FeSO4 was added at a concentration of 50 μg/ml, 5 μg/ml, 0.5 μg/ml or 0 μg/ml on the following day. In addition, the cytolysis type adenovirus AdE3-1A1.3B and 50 μg/ml of 5-aminolevulinic acid (ALA) were added to each well. Only the adenovirus was added to a control. The proliferation inhibitory effect of the adenovirus was evaluated by IC50 after five days.

Consider `NCC(=O)CCC(=O)O` [ALA, 5-aminolevulinic acid], for which the infectivity of adenovirus result with cancer cells [1] is on record as “increased infectivity of adenovirus”. For the same compound, the “amount of adenovirus production” value with cancer cells [2] is on record as “increased amount of adenovirus production”. Also, the “proliferation inhibitory effect relative to only adenovirus administration” value with ovarian cancer cells HEY (50 μg/ml ALA + AdE3-1A1.3B) was “about 100 fold”.
For ferrous sulfate [FeSO4], the “proliferation inhibitory effect relative to only adenovirus administration” value was “about 200 fold” with ovarian cancer cells HEY (0.5 μg/ml FeSO4 + 50 μg/ml ALA + AdE3-1A1.3B); “about 700 fold” with ovarian cancer cells HEY (5 μg/ml FeSO4 + 50 μg/ml ALA + AdE3-1A1.3B); “about 8 fold” in the assay with ovarian cancer cells HEY (5 μg/ml FeSO4 + AdE3-1A1.3B); “about 1,000 fold” with ovarian cancer cells HEY (50 μg/ml FeSO4 + 50 μg/ml ALA + AdE3-1A1.3B); “about 20 fold” with ovarian cancer cells HEY (50 μg/ml FeSO4 + AdE3-1A1.3B).
